# Reference: ChEMBL document CHEMBL1130362, “Pyrrolylquinoxalinediones: The importance of pyrrolic substitution on AMPA receptor binding” (Bioorg Med Chem Lett, 1997)
# pKi: −log10 of the molar value.
# Test system: Mus musculus
# Test: In vivo AMPA antagonism to protect 50% animals after intraperitoneal administration of the compound
# Assay type: functional
# Details: ip
row,SMILES,ED50 [mg/kg]
1,CC(=O)NCc1ccn(-c2cc3c(cc2C(F)(F)F)[nH]c(=O)c(=O)n3CC(=O)O)c1,10
2,O=C(O)Cn1c(=O)c(=O)[nH]c2cc(C(F)(F)F)c(-n3ccc(CNC(=O)Nc4ccccc4)c3)cc21,18
3,O=C(O)Cn1c(=O)c(=O)[nH]c2cc(C(F)(F)F)c(-n3ccc(CNC(=O)Nc4ccc(Br)cc4)c3)cc21,4.1
4,O=C(O)Cn1c(=O)c(=O)[nH]c2cc([N+](=O)[O-])c(-n3ccc(CNC(=O)Nc4ccccc4)c3)cc21,> 30
5,O=C(O)Cn1c(=O)c(=O)[nH]c2cc(C(F)(F)F)c(-n3ccc(CNC(=O)NCc4ccccc4)c3)cc21,30
6,O=C(O)Cn1c(=O)c(=O)[nH]c2cc(C(F)(F)F)c(-n3ccc(CNC(=O)Nc4ccc([N+](=O)[O-])cc4)c3)cc21,5.5
7,O=C(NCc1ccn(-c2cc3nc(O)c(O)nc3cc2[N+](=O)[O-])c1)Nc1ccccc1,30
8,O=C(O)Cn1c(=O)c(=O)[nH]c2cc(C(F)(F)F)c(-n3ccc(CNC(=O)Nc4ccc(C(F)(F)F)cc4)c3)cc21,14
9,O=C(O)Cn1c(=O)c(=O)[nH]c2cc(C(F)(F)F)c(-n3ccc(CNC(=O)c4ccccc4)c3)cc21,> 30
10,NS(=O)(=O)c1cccc2c1c([N+](=O)[O-])cc1nc(O)c(O)nc12 [NBQX],> 50

# Molecular target: Glutamate receptor ionotropic, NMDA 2C (Rattus norvegicus, UniProt Q00961)
# Test: Ability to displace [3H]glycine from NMDA receptor
# Details: not given
# Chain of Glutamate receptor ionotropic, NMDA 2C (Q00961 whole entry): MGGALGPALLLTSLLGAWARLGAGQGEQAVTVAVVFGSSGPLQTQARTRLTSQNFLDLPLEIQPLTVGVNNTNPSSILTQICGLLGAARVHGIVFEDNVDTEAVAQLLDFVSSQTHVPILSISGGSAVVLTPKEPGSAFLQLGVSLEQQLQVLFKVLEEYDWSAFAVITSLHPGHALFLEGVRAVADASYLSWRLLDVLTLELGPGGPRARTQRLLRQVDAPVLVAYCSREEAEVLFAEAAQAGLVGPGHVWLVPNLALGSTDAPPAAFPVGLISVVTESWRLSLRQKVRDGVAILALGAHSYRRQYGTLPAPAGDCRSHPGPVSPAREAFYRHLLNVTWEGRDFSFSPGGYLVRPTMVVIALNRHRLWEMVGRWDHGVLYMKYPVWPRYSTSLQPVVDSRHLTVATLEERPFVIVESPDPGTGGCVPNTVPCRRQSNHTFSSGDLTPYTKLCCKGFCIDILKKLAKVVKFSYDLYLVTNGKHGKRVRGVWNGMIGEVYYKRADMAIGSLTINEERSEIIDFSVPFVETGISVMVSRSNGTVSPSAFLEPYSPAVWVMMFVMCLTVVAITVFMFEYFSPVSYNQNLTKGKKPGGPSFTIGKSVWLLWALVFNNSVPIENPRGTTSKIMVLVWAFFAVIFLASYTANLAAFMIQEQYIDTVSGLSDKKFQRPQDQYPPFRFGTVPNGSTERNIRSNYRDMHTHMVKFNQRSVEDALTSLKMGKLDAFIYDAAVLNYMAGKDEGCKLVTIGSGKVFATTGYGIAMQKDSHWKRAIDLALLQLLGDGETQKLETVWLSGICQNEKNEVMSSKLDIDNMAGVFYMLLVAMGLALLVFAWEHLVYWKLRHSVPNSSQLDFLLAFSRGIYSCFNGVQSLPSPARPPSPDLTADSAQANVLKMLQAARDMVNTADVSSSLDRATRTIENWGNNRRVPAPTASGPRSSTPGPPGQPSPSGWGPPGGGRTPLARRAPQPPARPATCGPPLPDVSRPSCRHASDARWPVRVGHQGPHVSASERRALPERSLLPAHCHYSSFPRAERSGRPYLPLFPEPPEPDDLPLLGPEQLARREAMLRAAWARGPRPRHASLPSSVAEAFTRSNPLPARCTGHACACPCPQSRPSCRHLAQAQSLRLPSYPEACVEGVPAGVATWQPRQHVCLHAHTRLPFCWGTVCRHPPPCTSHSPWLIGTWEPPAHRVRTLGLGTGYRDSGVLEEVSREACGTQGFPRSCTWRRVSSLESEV
row,SMILES,pKi
1,O=C(O)Cn1c(=O)c(=O)[nH]c2cc(C(F)(F)F)c(-n3ccc(CNC(=O)Nc4ccccc4)c3)cc21,< 4.52
2,O=C(O)Cn1c(=O)c(=O)[nH]c2cc(C(F)(F)F)c(-n3ccc(CNC(=O)Nc4ccc(Br)cc4)c3)cc21,< 4.52
3,O=C(O)Cn1c(=O)c(=O)[nH]c2cc(C(F)(F)F)c(-n3ccc(CNC(=O)NCc4ccccc4)c3)cc21,< 4.52
4,O=C(O)Cn1c(=O)c(=O)[nH]c2cc(C(F)(F)F)c(-n3ccc(CNC(=O)Nc4ccc([N+](=O)[O-])cc4)c3)cc21,< 4.52
5,O=C(NCc1ccn(-c2cc3nc(O)c(O)nc3cc2[N+](=O)[O-])c1)Nc1ccccc1,< 4.52
6,O=C(O)Cn1c(=O)c(=O)[nH]c2cc(C(F)(F)F)c(-n3ccc(CNC(=O)c4ccccc4)c3)cc21,< 4.52

# The remaining lines, values ahead:
row,pKi,SMILES
1,< 4.52,CC(=O)NCc1ccn(-c2cc3c(cc2C(F)(F)F)[nH]c(=O)c(=O)n3CC(=O)O)c1
2,< 4.52,O=C(O)Cn1c(=O)c(=O)[nH]c2cc([N+](=O)[O-])c(-n3ccc(CNC(=O)Nc4ccccc4)c3)cc21
3,< 4.52,O=C(O)Cn1c(=O)c(=O)[nH]c2cc(C(F)(F)F)c(-n3ccc(CNC(=O)Nc4ccc(C(F)(F)F)cc4)c3)cc21

# Molecular target: Glutamate receptor ionotropic AMPA (Homo sapiens, UniProt P42261+P42262+P42263+P48058)
# Details: not given
row,SMILES,pKi
1,CN(Cc1ccccc1)Cc1ccn(-c2cc3nc(O)c(O)nc3cc2[N+](=O)[O-])c1,6.06
2,O=C(O)Cn1c(=O)c(=O)[nH]c2cc(C(F)(F)F)c(-n3cccc3)cc21,6.74
3,NCc1ccn(-c2cc3c(cc2[N+](=O)[O-])[nH]c(=O)c(=O)n3CC(=O)O)c1,6.08
4,O=C(O)Cn1c(=O)c(=O)[nH]c2cc(C(F)(F)F)c(-n3ccc(CNC(=O)Nc4ccccc4)c3)cc21,7.82
5,NCc1ccn(-c2cc3nc(O)c(O)nc3cc2C(F)(F)F)c1,6.01
6,O=C(O)Cn1c(=O)c(=O)[nH]c2cc(C(F)(F)F)c(-n3ccc(CNC(=O)Nc4ccc(Br)cc4)c3)cc21,8.40
7,NCc1ccn(-c2cc3c(cc2C(F)(F)F)[nH]c(=O)c(=O)n3CC(=O)O)c1,5.00
8,O=C(O)Cn1c(=O)c(=O)[nH]c2cc([N+](=O)[O-])c(-n3ccc(/C=N/OCc4ccccc4)c3)cc21,6.68
9,Oc1nc2cc(-n3cccc3)c(C(F)(F)F)cc2nc1O,5.52
10,O=C(O)Cn1c(=O)c(=O)[nH]c2cc(C(F)(F)F)c(-n3ccc(CNC(=O)NCc4ccccc4)c3)cc21,7.31
11,O=C(O)Cn1c(=O)c(=O)[nH]c2cc(C(F)(F)F)c(-n3ccc(CNC(=O)Cc4ccccc4)c3)cc21,6.85
12,O=C(O)Cn1c(=O)c(=O)[nH]c2cc([N+](=O)[O-])c(-n3ccc(CNC(=O)NCCc4ccncc4)c3)cc21,7.02
13,O=C(O)Cn1c(=O)c(=O)[nH]c2cc(C(F)(F)F)c(-n3ccc(CNC(=O)Nc4ccc([N+](=O)[O-])cc4)c3)cc21,8.30
14,O=C(O)c1cccn1-c1cc2nc(O)c(O)nc2cc1C(F)(F)F,< 4.60
15,O=C(NCc1ccn(-c2cc3nc(O)c(O)nc3cc2[N+](=O)[O-])c1)Nc1ccccc1,6.60
16,O=C(NCc1ccccc1)c1cccn1-c1cc2nc(O)c(O)nc2cc1C(F)(F)F,< 4.60
17,O=C(O)Cn1c(=O)c(=O)[nH]c2cc(C(F)(F)F)c(-n3ccc(CNC(=O)c4ccccc4)c3)cc21,7.11
18,O=C(O)Cn1c(=O)c(=O)[nH]c2cc([N+](=O)[O-])c(-n3ccc(CNC(=O)CCc4ccccc4)c3)cc21,6.30
19,O=C(NCc1ccn(-c2cc3nc(O)c(O)nc3cc2[N+](=O)[O-])c1)Nc1ccncc1,6.96
20,O=C(O)Cn1c(=O)c(=O)[nH]c2cc([N+](=O)[O-])c(-n3ccc(CNC(=O)c4ccncc4)c3)cc21,6.55

# Results, then the compound that gave them:
row,pKi,SMILES
1,7.12,CC(=O)NCc1ccn(-c2cc3c(cc2C(F)(F)F)[nH]c(=O)c(=O)n3CC(=O)O)c1
2,6.40,O=[N+]([O-])c1cc2nc(O)c(O)nc2cc1-n1cccc1
3,7.15,O=C(O)Cn1c(=O)c(=O)[nH]c2cc([N+](=O)[O-])c(-n3ccc(CNC(=O)Nc4ccccc4)c3)cc21
4,6.60,O=C(O)Cn1c(=O)c(=O)[nH]c2cc(C(F)(F)F)c(-n3ccc(/C=N/OCc4ccccc4)c3)cc21
5,6.19,O=Cc1ccn(-c2cc3nc(O)c(O)nc3cc2C(F)(F)F)c1
6,< 4.60,COC(=O)c1cccn1-c1cc2nc(O)c(O)nc2cc1C(F)(F)F
7,4.70,Cc1ccc(C)n1-c1cc2nc(O)c(O)nc2cc1[N+](=O)[O-]
8,< 4.60,Cc1ccc(C)n1-c1cc2nc(O)c(O)nc2cc1C(F)(F)F
9,7.15,O=C(O)Cn1c(=O)c(=O)[nH]c2cc([N+](=O)[O-])c(-n3cccc3)cc21
10,5.70,Cc1ccc(C)n1-c1cc2c(cc1C(F)(F)F)[nH]c(=O)c(=O)n2CC(=O)O
11,8.30,O=C(O)Cn1c(=O)c(=O)[nH]c2cc(C(F)(F)F)c(-n3ccc(CNC(=O)Nc4ccc(C(F)(F)F)cc4)c3)cc21
12,6.05,CCN(CC)Cc1ccn(-c2cc3c(cc2C(F)(F)F)[nH]c(=O)c(=O)n3CC(=O)O)c1
13,5.70,NCc1ccn(-c2cc3nc(O)c(O)nc3cc2[N+](=O)[O-])c1
14,5.52,O=C(O)Cn1c(=O)c(=O)[nH]c2cc([N+](=O)[O-])c(-n3ccc(CC(=O)N4CCCCC4)c3)cc21
15,6.87,O=c1[nH]c2cc(-n3ccnc3)c([N+](=O)[O-])cc2[nH]c1=O [YM-90K]
